According to ChEMBL document CHEMBL5316331, “Modulating Cytotoxicity with Lego-like Chemistry: Upgrading Mitochondriotropic Antioxidants with Prototypical Cationic Carrier Bricks” (J Med Chem, 2023):
Active and inactive are the calls of the source.

Tests used:
SH-SY5Y [1] = experiment: Antioxidant activity against human SH-SY5Y cells assessed as increase in basal OCR at 10 uM incubated for 24 hrs followed by addition of oligomycin/FCCP/antimycin A /rotenone by Cell Mito stress assay based seahorse XF96 flux analyzer; type: functional
SH-SY5Y [2] = experiment: Cytotoxicity against human SH-SY5Y cells incubated for 48 hrs; type: toxicity, cell-based
SH-SY5Y [3] = experiment: Antioxidant activity against human SH-SY5Y cells assessed as increase in maximal respiration at 10 uM incubated for 24 hrs followed by addition of oligomycin/FCCP/antimycin A /rotenone by Cell Mito stress assay based seahorse XF96 flux analyzer; type: functional
SH-SY5Y [4] = experiment: Antioxidant activity against human SH-SY5Y cells assessed as increase in spare respiratory capacity at 10 uM incubated for 24 hrs followed by addition of oligomycin/FCCP/antimycin A /rotenone by Cell Mito stress assay based seahorse XF96 flux analyzer; type: functional
[5] = Cytotoxicity against human SH-SY5Y cells assessed as cell viability incubated for 24 hrs; type: toxicity, cell-based; conditions: read-out: Activity
HepG2 = experiment: Cytotoxicity against human HepG2 cells assessed as increase in cell viability at 10 to 100 uM incubated for 24 hrs; type: toxicity, cell-based; conditions: hepg2, 24 h, dose 10-100 µM
SH-SY5Y [6] = experiment: Neuroprotective activity against H2O2-induced human SH-SY5Y cells assessed as increase in cell viability at 10 uM preincubated for 30 mins followed by H2O2 addition and measured after 24 hrs by SRB assay; type: functional, cell-based; conditions: time 24.5 hrs
SH-SY5Y [7] = experiment: Antioxidant activity against human SH-SY5Y cells assessed as increase in basal respiration at 10 uM incubated for 24 hrs followed by addition of oligomycin/FCCP/antimycin A /rotenone by Cell Mito stress assay based seahorse XF96 flux analyzer; type: functional
[8] = Cytotoxicity against human HepG2 cells assessed as cell viability incubated for 24 hrs; type: toxicity, cell-based; conditions: read-out: Activity
SH-SY5Y [9] = experiment: Antioxidant activity against human SH-SY5Y cells assessed as increase in spare respiratory capacity at 50 uM incubated for 24 hrs followed by addition of oligomycin/FCCP/antimycin A /rotenone by Cell Mito stress assay based seahorse XF96 flux analyzer; type: functional
SH-SY5Y [10] = experiment: Antioxidant activity against human SH-SY5Y cells assessed as increase in maximal respiration at 50 uM incubated for 24 hrs followed by addition of oligomycin/FCCP/antimycin A /rotenone by Cell Mito stress assay based seahorse XF96 flux analyzer; type: functional
SH-SY5Y [11] = experiment: Antioxidant activity against human SH-SY5Y cells assessed as increase in basal ECAR at 10 uM incubated for 24 hrs followed by addition of oligomycin/FCCP/antimycin A /rotenone by Cell Mito stress assay based seahorse XF96 flux analyzer; type: functional
SH-SY5Y [12] = experiment: Antioxidant activity against human SH-SY5Y cells assessed as increase in ATP production-linked respiration at 10 uM incubated for 24 hrs followed by addition of oligomycin/FCCP/antimycin A /rotenone by Cell Mito stress assay based seahorse XF96 flux analyzer; type: functional
[13] = Drug uptake in C57BL/6J mouse liver mitochondria at 5 uM in presence of succinate by UPLC analysis; type: ADME
SH-SY5Y [14] = experiment: Neuroprotective activity against H2O2-induced human SH-SY5Y cells assessed as increase in cell viability at 50 uM preincubated for 30 mins followed by H2O2 addition and measured after 24 hrs by SRB assay; type: functional, cell-based; conditions: time 24.5 hrs
SH-SY5Y [15] = experiment: Cytotoxicity against human SH-SY5Y cells assessed as increase in cell viability at 10 to 100 uM incubated for 24 hrs; type: toxicity, cell-based; conditions: dose 10-100 µM
SH-SY5Y [16] = experiment: Antioxidant activity against human SH-SY5Y cells assessed as increase in basal respiration at 50 uM incubated for 24 hrs followed by addition of oligomycin/FCCP/antimycin A /rotenone by Cell Mito stress assay based seahorse XF96 flux analyzer; type: functional
[17] = Drug uptake in C57BL/6J mouse liver mitochondria at 5 uM in presence of FCCP by UPLC analysis; type: ADME
[18] = Drug uptake in C57BL/6J mouse liver mitochondria at 5 uM in presence of rotenone by UPLC analysis; type: ADME
SH-SY5Y [19] = experiment: Antioxidant activity against human SH-SY5Y cells assessed as increase in ATP production-linked respiration at 50 uM incubated for 24 hrs followed by addition of oligomycin/FCCP/antimycin A /rotenone by Cell Mito stress assay based seahorse XF96 flux analyzer; type: functional
SH-SY5Y [20] = experiment: Effect on cell morphology in human SH-SY5Y cells assessed as reduction in neurite at 100 uM incubated for 24 hrs by Phase-contrast microscopy; type: functional, cell-based
SH-SY5Y [21] = experiment: Effect on cell death pathway in human SH-SY5Y cells assessed as increase in necrotic cells at 50 uM incubated for 24 hrs by Annexin V-FITC/PI staining based microscopy; type: functional
SH-SY5Y [22] = experiment: Effect on cell death pathway in human SH-SY5Y cells assessed as increase in early apoptotic cells at 50 uM incubated for 24 hrs by Annexin V-FITC/PI staining based microscopy; type: functional
SH-SY5Y [23] = experiment: Effect on cell death pathway in human SH-SY5Y cells assessed as increase in early apoptotic cells at 100 uM incubated for 24 hrs by Annexin V-FITC/PI staining based microscopy; type: functional
SH-SY5Y [24] = experiment: Effect on cell death pathway in human SH-SY5Y cells assessed as increase in necrotic cells at 100 uM incubated for 24 hrs by Annexin V-FITC/PI staining based microscopy; type: functional
SH-SY5Y [25] = experiment: Effect on cell mitochondrial mass in human SH-SY5Y cells assessed as reduction on mitochondrial mass at 50 uM incubated for 24 hrs by mito-tracker green dye based flow cytometry; type: functional; set-up: scale not given: the % may be the effect or the level left
SH-SY5Y [26] = experiment: Effect on cell morphology in human SH-SY5Y cells assessed as reduction in cell body at 50 uM incubated for 24 hrs by Phase-contrast microscopy; type: functional, cell-based
SH-SY5Y [27] = experiment: Effect on cell morphology in human SH-SY5Y cells assessed as reduction in cell body at 100 uM incubated for 24 hrs by Phase-contrast microscopy; type: functional, cell-based
SH-SY5Y [28] = experiment: Effect on cell morphology in human SH-SY5Y cells assessed as reduction in neurite at 50 uM incubated for 24 hrs by Phase-contrast microscopy; type: functional, cell-based
SH-SY5Y [29] = experiment: Effect on cell death pathway in human SH-SY5Y cells assessed as increase in late apoptotic cells at 50 uM incubated for 24 hrs by Annexin V-FITC/PI staining based microscopy; type: functional
SH-SY5Y [30] = experiment: Effect on cell death pathway in human SH-SY5Y cells assessed as increase in late apoptotic cells at 100 uM incubated for 24 hrs by Annexin V-FITC/PI staining based microscopy; type: functional

CS(=O)(=O)[O-].Cc1cc[n+](CCCCCCCCCCNC(=O)/C=C/c2ccc(O)c(O)c2)cc1
Active: Drug uptake [17]
≥ 85%: viability at 24 h [5] | viability at 24 h [8]
Non-Toxic: Activity (SH-SY5Y [2]) | Activity (HepG2) | Activity (SH-SY5Y [15])
~ 25%: Drug uptake [13]
inactive: Activity (SH-SY5Y [6]) | Activity (SH-SY5Y [14])
Not Active: Drug uptake [18]
active: Activity (SH-SY5Y [1]) | Activity (SH-SY5Y [3]) | Activity (SH-SY5Y [4]) | Activity (SH-SY5Y [7]) | Activity (SH-SY5Y [9]) | Activity (SH-SY5Y [10]) | Activity (SH-SY5Y [11]) | Activity (SH-SY5Y [12]) | Activity (SH-SY5Y [16]) | Activity (SH-SY5Y [19])

N#CC(C#N)=NNc1cccc(Cl)c1 [CARBONYL CYANIDE M-CHLOROPHENYLHYDRAZONE]
active: Activity (SH-SY5Y [20]) | Activity (SH-SY5Y [21]) | Activity (SH-SY5Y [22]) | Activity (SH-SY5Y [23]) | Activity (SH-SY5Y [24]) | Activity (SH-SY5Y [26]) | Activity (SH-SY5Y [27]) | Activity (SH-SY5Y [28]) | Activity (SH-SY5Y [29]) | Activity (SH-SY5Y [30])
77.4%: Activity (SH-SY5Y [25])
